Like-named read-outs stand apart in the source and are kept apart here.
Tests used:
[1] = target: BRD3 (Homo sapiens, UniProt Q15059); experiment: Fluorescence anisotropy (FA) binding assay, BRD3
Method: (§1) Fluorescence Anisotropy (FA) Binding Assays.
(§2) FA assays were performed as described in Chung et al., J. Med Chem., 2011 54(11): 3827-38 except that protein concentrations were 125 nM and plates were read on a Spectramax M5 plate reader.

[2] = target: BRD2 (Homo sapiens, UniProt P25440); experiment: Fluorescence anisotropy (FA) binding assay, BRD2
Method: as §1, §2

[3] = target: BRD4 (Homo sapiens, UniProt O60885); experiment: Fluorescence anisotropy (FA) binding assay, BRD4
Method: as §1, §2

[4] = BRD3, protein 125 nM, read-out: IC50 range (FA assay) BRD3, BRD-E monomers
[5] = BRD2, protein 125 nM, read-out: IC50 range (FA assay) BRD2, BRD-E monomers
[6] = BRD4, protein 125 nM, read-out: IC50 range (FA assay) BRD4, BRD-E monomers
[7] = BRD3, protein 125 nM, read-out: IC50 range (FA assay) BRD3, BRD-N monomers
[8] = BRD2, protein 125 nM, read-out: IC50 range (FA assay) BRD2, BRD-N monomers
[9] = BRD4, protein 125 nM, read-out: IC50 range (FA assay) BRD4, BRD-N monomers

Chain of BRD2 (P25440 whole entry): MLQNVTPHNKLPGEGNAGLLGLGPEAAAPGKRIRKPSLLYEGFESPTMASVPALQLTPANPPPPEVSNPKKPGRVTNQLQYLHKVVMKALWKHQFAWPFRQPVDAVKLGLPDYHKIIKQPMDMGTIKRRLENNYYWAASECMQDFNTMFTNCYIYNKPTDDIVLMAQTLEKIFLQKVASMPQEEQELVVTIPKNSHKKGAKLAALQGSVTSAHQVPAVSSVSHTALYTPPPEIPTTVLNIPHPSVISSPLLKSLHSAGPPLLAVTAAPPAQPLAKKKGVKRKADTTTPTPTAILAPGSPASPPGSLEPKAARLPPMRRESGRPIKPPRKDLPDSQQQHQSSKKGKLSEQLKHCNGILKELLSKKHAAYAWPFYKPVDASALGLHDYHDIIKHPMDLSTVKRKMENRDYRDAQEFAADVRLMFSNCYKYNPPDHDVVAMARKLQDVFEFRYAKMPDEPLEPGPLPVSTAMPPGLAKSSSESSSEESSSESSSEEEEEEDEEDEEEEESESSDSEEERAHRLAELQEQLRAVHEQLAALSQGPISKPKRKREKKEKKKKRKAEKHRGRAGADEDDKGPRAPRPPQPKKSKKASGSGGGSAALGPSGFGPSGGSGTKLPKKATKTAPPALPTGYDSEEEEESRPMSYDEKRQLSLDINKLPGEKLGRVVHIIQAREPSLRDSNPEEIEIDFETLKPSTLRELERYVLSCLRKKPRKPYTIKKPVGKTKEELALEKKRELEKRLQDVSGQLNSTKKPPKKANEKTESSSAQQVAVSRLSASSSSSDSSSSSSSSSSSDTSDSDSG
Chain of BRD3 (Q15059 whole entry): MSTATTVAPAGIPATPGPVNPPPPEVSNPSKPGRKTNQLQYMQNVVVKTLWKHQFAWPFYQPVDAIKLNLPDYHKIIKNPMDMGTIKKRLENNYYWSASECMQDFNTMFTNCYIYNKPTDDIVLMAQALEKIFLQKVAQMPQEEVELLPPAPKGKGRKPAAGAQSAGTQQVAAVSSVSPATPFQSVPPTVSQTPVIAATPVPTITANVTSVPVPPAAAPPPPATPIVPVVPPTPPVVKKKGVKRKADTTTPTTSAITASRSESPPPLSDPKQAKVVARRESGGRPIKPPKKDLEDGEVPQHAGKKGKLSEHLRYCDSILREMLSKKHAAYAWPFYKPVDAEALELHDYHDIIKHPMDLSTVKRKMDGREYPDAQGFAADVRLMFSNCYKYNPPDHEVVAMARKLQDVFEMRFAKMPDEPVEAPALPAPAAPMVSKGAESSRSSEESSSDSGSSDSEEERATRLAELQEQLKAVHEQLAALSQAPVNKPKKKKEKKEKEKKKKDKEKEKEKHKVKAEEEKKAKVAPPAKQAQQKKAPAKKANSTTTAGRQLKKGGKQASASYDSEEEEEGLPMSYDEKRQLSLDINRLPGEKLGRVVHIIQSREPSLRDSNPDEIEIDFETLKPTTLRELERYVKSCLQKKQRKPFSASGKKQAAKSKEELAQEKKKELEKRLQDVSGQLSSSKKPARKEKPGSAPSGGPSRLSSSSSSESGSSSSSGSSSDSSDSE

SMILES | IC50 [1, 4] [nM] | IC50 [2, 5] [nM] | IC50 [3, 6] [nM] | IC50 [1, 7] [nM] | IC50 [2, 8] [nM] | IC50 [3, 9] [nM] | other results
CCNC(=O)C[C@@H]1N=C(c2ccc(Cl)cc2)c2cc(OCCNC(=O)c3ccc(B(O)O)cc3)ccc2-n2c(C)nnc21 [BRD-E-22, (S)-(4-((2-((6-(4-chlorophenyl)-4-(2-(ethylamino)-2-oxoethyl)-1-methyl-4H-benzo[f][1,2,4]triazolo[4,3-a]diazepin-8-yl)oxy)ethyl)carbamoyl)phenyl)boronic acid] | 50 to 1000 | 50 to 1000 | 50 to 1000 | – | – | – | –
COc1ccc2c(c1)C(c1ccc(Cl)cc1)=N[C@@H](CC(=O)NCc1cccc(O)c1O)c1nnc(C)n1-2 [BRD-N-11, (S)-2-(6-(4-chlorophenyl)-8-methoxy-1-methyl-4H-benzo[f][1,2,4]triazolo[4,3-a][1,4]diazepin-4-yl)-N-(2,3-dihydroxybenzyl)acetamide] | – | – | – | 50 to 1000 | 50 to 1000 | 50 to 1000 | –
CCNC(=O)C[C@@H]1N=C(c2ccc(Cl)cc2)c2cc(OCCCC(=O)Nc3cccc(O)c3O)ccc2-n2c(C)nnc21 [BRD-N-21, (S)-4-((6-(4-chlorophenyl)-4-(2-(ethylamino)-2-oxoethyl)-1-methyl-4H-benzo[f][1,2,4]triazolo[4,3-a][1,4]diazepin-8-yl)oxy)-N-(2,3-dihydroxyphenyl)butanamide] | – | – | – | 50 to 1000 | 1000 to 30000 | 50 to 1000 | –
COc1ccc2c(c1)C(c1ccc(Cl)cc1)=N[C@@H](CC(=O)NCCNC(=O)/C=C/c1ccc(B(O)O)cc1)c1nnc(C)n1-2 [BRD-E-29, (4-((E)-3-((2-(2-((4S)-6-(4-chlorophenyl)-8-methoxy-1-methyl-4H-benzo[f][1,2,4]triazolo[4,3-a][1,4]diazepin-4-yl)acetamido)ethyl)amino)-3-oxoprop-1-en-1-yl)phenyl)boronic acid] | 50 to 1000 | 50 to 1000 | 50 to 1000 | – | – | – | –
COc1ccc2c(c1)C(c1ccc(Cl)cc1)=N[C@@H](CC(=O)NCCNC(=O)c1ccc(O)c(O)c1)c1nnc(C)n1-2 [BRD-N-01, N-(2-(2-((4S)-6-(4-chlorophenyl)-8-methoxy-1-methyl-4H-benzo[f][1,2,4]triazolo[4,3-a][1,4]diazepin-4-yl)acetamido)ethyl)-3,4-dihydroxybenzamide] | – | – | – | 50 to 1000 | 50 to 1000 | 50 to 1000 | –
CCNC(=O)C[C@@H]1N=C(c2ccc(Cl)cc2)c2cc(OCC(=O)Nc3cccc(B(O)O)c3)ccc2-n2c(C)nnc21 [BRD-E-15, (S)-(3-(2-((6-(4-chlorophenyl)-4-(2-(ethylamino)-2-oxoethyl)-1-methyl-4H-benzo[f][1,2,4]triazolo[4,3-a][1,4]diazepin-8-yl)oxy)acetamido)phenyl)boronic acid] | 50 to 1000 | 1000 to 30000 | 50 to 1000 | – | – | – | –
COc1ccc2c(c1)C(c1ccc(Cl)cc1)=N[C@@H](CC(=O)NCCCCNC(=O)c1ccc(O)c(O)c1)c1nnc(C)n1-2 [BRD-N-05, N-(4-(2-((4S)-6-(4-chlorophenyl)-8-methoxy-1-methyl-4H-benzo[f][1,2,4]triazolo[4,3-a][1,4]diazepin-4-yl)acetamido)butyl)-3,4-dihydroxybenzamide] | – | – | – | – | – | – | IC50 [1]: 50 to 1000 nM; IC50 [2]: 50 to 1000 nM; IC50 [3]: 50 to 1000 nM
CCNC(=O)C[C@@H]1N=C(c2ccc(Cl)cc2)c2cc(OCCCNC(=O)c3ccc(B(O)O)cc3)ccc2-n2c(C)nnc21 [BRD-E-24, (S)-(4-((3-((6-(4-chlorophenyl)-4-(2-(ethylamino)-2-oxoethyl)-1-methyl-4H-benzo[f][1,2,4]triazolo[4,3-a][1,4]diazepin-8-yl)oxy)propyl)carbamoyl)phenyl)-boronic acid] | 50 to 1000 | 1000 to 30000 | 50 to 1000 | – | – | – | –
CCNC(=O)C[C@@H]1N=C(c2ccc(Cl)cc2)c2cc(OCCCNC(=O)c3ccc(O)c(O)c3)ccc2-n2c(C)nnc21 [BRD-N-26, (S)—N-(3-((6-(4-chlorophenyl)-4-(2-(ethylamino)-2-oxoethyl)-1-methyl-4H-benzo[f][1,2,4]triazolo[4,3-a][1,4]diazepin-8-yl)oxy)propyl)-3,4-dihydroxybenzaamide] | – | – | – | 1000 to 30000 | 1000 to 30000 | 1000 to 30000 | –
COc1ccc2c(c1)C(c1ccc(Cl)cc1)=N[C@@H](CC(=O)NCCNC(=O)c1cccc(-c3cccc(B(O)O)c3)c1)c1nnc(C)n1-2 [BRD-E-31, (3′-((2-(2-((4S)-6-(4-chlorophenyl)-8-methoxy-1-methyl-4H-benzo[f][1,2,4]triazolo[4,3-a][1,4]diazepin-4-yl)acetamido)ethyl)carbamoyl)-[1,1′-biphenyl]-3-yl)boronic acid] | 50 to 1000 | 50 to 1000 | 50 to 1000 | – | – | – | –
CCNC(=O)C[C@@H]1N=C(c2ccc(Cl)cc2)c2cc(OCCNC(=O)c3ccc(O)c(O)c3)ccc2-n2c(C)nnc21 [BRD-N-24] | – | – | – | 50 to 1000 | 50 to 1000 | 1000 to 30000 | –
COc1ccc2c(c1)C(c1ccc(Cl)cc1)=N[C@@H](CC(=O)NCc1ccc(O)c(O)c1)c1nnc(C)n1-2 [BRD-N-09, (S)-2-(6-(4-chlorophenyl)-8-methoxy-1-methyl-4H-benzo[f][1,2,4]triazolo[4,3-a][1,4]diazepin-4-yl)-N-(3,4-dihydroxybenzyl)acetamide] | – | – | – | 50 to 1000 | 50 to 1000 | 50 to 1000 | –
CCNC(=O)C[C@@H]1N=C(c2ccc(Cl)cc2)c2cc(OCCCNC(=O)c3cccc(B(O)O)c3)ccc2-n2c(C)nnc21 [BRD-E-23, (S)-(3-((3-((6-(4-chlorophenyl)-4-(2-(ethylamino)-2-oxoethyl)-1-methyl-4H-benzo[f][1,2,4]triazolo[4,3-a][1,4]diazepin-8-yl)oxy)propyl)carbamoyl)phenyl)boronic acid] | 1000 to 30000 | 1000 to 30000 | 1000 to 30000 | – | – | – | –
COc1ccc2c(c1)C(c1ccc(Cl)cc1)=N[C@@H](CC(=O)NCc1cccc(B(O)O)c1)c1nnc(C)n1-2 [BRD-E-10, (S)-(3-((2-(6-(4-chlorophenyl)-8-methoxy-1-methyl-4H-benzo[f][1,2,4]triazolo[4,3-a][1,4]diazepin-4-yl)acetamido)methyl)phenyl)boronic acid] | – | – | – | – | – | – | IC50 [1]: 50 to 1000 nM; IC50 [2]: 50 to 1000 nM; IC50 [3]: 50 to 1000 nM
CCNC(=O)C[C@@H]1N=C(c2ccc(Cl)cc2)c2cc(OCC(=O)Nc3ccc(B(O)O)cc3)ccc2-n2c(C)nnc21 [BRD-E-16, (S)-(4-(2-((6-(4-chlorophenyl)-4-(2-(ethylamino)-2-oxoethyl)-1-methyl-4H-benzo[f][1,2,4]triazolo[4,3-a][1,4]diazepin-8-yl)oxy)acetamido)phenyl)boronic acid] | 50 to 1000 | 1000 to 30000 | 50 to 1000 | – | – | – | –
COc1ccc2c(c1)C(c1ccc(Cl)cc1)=N[C@@H](CC(=O)NCCCCCNC(=O)c1ccc(O)c(O)c1)c1nnc(C)n1-2 [BRD-N-07, N-(5-(2-((4S)-6-(4-chlorophenyl)-8-methoxy-1-methyl-4H-benzo[f][1,2,4]triazolo[4,3-a][1,4]diazepin-4-yl)acetamido)pentyl)-3,4-dihydroxybenzamide] | – | – | – | 50 to 1000 | 50 to 1000 | 50 to 1000 | –
COc1ccc2c(c1)C(c1ccc(Cl)cc1)=N[C@@H](CC(=O)NCCCNC(=O)c1ccc(O)c(O)c1)c1nnc(C)n1-2 [BRD-N-03, N-(3-(2-((4S)-6-(4-chlorophenyl)-8-methoxy-1-methyl-4H-benzo[f][1,2,4]triazolo[4,3-a][1,4]diazepin-4-yl)acetamido)propyl)-3,4-dihydroxybenzamide] | – | – | – | 50 to 1000 | 50 to 1000 | 50 to 1000 | –
COc1ccc2c(c1)C(c1ccc(Cl)cc1)=N[C@@H](CC(=O)NCCCCNC(=O)c1cccc(B(O)O)c1)c1nnc(C)n1-2 [BRD-E-06, (3-((4-(2-((4S)-6-(4-chlorophenyl)-8-methoxy-1-methyl-4H-benzo[f][1,2,4]triazolo[4,3-a][1,4]diazepin-4-yl)acetamido)butyl)carbamoyl)phenyl)boronic acid] | 50 to 1000 | 50 to 1000 | 50 to 1000 | – | – | – | –
CCNC(=O)C[C@@H]1N=C(c2ccc(Cl)cc2)c2cc(OCCCCC(=O)Nc3cccc(O)c3O)ccc2-n2c(C)nnc21 [BRD-N-23, (S)-5-((6-(4-chlorophenyl)-4-(2-(ethylamino)-2-oxoethyl)-1-methyl-4H-benzo[f][1,2,4]triazolo[4,3-a][1,4]diazepin-8-yl)oxy)-N-(2,3-dihydroxyphenyl)pentanamide] | – | – | – | – | – | – | IC50 [1]: 50 to 1000 nM; IC50 [2]: 50 to 1000 nM; IC50 [3]: 50 to 1000 nM
CCNC(=O)C[C@@H]1N=C(c2ccc(Cl)cc2)c2cc(OCCCCNC(=O)c3cccc(B(O)O)c3)ccc2-n2c(C)nnc21 [BRD-E-25, (S)-(3-((4-((6-(4-chlorophenyl)-4-(2-(ethylamino)-2-oxoethyl)-1-methyl-4H-benzo[f][1,2,4]triazolo[4,3-a][1,4]diazepin-8-yl)oxy)butyl)carbamoyl)phenyl)boronic acid] | 1000 to 30000 | 1000 to 30000 | 1000 to 30000 | – | – | – | –
COc1ccc2c(c1)C(c1ccc(Cl)cc1)=N[C@@H](CC(=O)NCCNC(=O)c1ccc(B(O)O)cc1)c1nnc(C)n1-2 [BRD-E-01, (4-((2-(2-((4S)-6-(4-chlorophenyl)-8-methoxy-1-methyl-4H-benzo[f][1,2,4]triazolo[4,3-a][1,4]diazepin-4-yl)acetamido)ethyl)carbamoyl)phenyl)boronic acid] | – | – | – | – | – | – | IC50 [1]: 50 to 1000 nM; IC50 [2]: 50 to 1000 nM; IC50 [3]: 50 to 1000 nM
CCNC(=O)C[C@@H]1N=C(c2ccc(Cl)cc2)c2cc(OCCCCNC(=O)c3ccc(B(O)O)cc3)ccc2-n2c(C)nnc21 [BRD-E-26, (S)-(4-((4-((6-(4-chlorophenyl)-4-(2-(ethylamino)-2-oxoethyl)-1-methyl-4H-benzo[f][1,2,4]triazolo[4,3-a][1,4]diazepin-8-yl)oxy)butyl)carbamoyl)phenyl)boronic acid] | 50 to 1000 | 50 to 1000 | 50 to 1000 | – | – | – | –

— US20140243286A1, “BROMODOMAIN LIGANDS CAPABLE OF DIMERIZING IN AN AQUEOUS SOLUTION, AND METHODS OF USING SAME” (Coferon, Inc., priority 2011, published 2014)
